# Data: US20090118332A1, “Therapeutic Agents - 551” (AstraZeneca AB, priority 2006, published 2009)
# Molecular target: T1, human Fatty Acid Synthase (Homo sapiens, UniProt P49327)
# T1 construct: made in house
# Experiment: Human FAS enzyme assay (decrease in NADPH fluorescence)
# Format: biochemical
# Details: for inhibition at 100 µM: % inhibition at a concentration of 100 μmolar; for IC50, inhibition of human Fatty Acid Synthase: FAS enzyme assay, IC50 from fitted sigmoid curves
# Procedure, shortened: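 In-house human FAS was preincubated with compound and NADPH for 15 min at room temperature in 0.1 M Tris pH 7.5 with EDTA, glutathione and BSA. Malonyl CoA and acetyl CoA (500 μM and 150 μM in the added mix) were then added for 60 min. IC50 came from time-zero-subtracted NADPH fluorescence (340/460 nm).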
# T1 sequence (P49327 whole entry): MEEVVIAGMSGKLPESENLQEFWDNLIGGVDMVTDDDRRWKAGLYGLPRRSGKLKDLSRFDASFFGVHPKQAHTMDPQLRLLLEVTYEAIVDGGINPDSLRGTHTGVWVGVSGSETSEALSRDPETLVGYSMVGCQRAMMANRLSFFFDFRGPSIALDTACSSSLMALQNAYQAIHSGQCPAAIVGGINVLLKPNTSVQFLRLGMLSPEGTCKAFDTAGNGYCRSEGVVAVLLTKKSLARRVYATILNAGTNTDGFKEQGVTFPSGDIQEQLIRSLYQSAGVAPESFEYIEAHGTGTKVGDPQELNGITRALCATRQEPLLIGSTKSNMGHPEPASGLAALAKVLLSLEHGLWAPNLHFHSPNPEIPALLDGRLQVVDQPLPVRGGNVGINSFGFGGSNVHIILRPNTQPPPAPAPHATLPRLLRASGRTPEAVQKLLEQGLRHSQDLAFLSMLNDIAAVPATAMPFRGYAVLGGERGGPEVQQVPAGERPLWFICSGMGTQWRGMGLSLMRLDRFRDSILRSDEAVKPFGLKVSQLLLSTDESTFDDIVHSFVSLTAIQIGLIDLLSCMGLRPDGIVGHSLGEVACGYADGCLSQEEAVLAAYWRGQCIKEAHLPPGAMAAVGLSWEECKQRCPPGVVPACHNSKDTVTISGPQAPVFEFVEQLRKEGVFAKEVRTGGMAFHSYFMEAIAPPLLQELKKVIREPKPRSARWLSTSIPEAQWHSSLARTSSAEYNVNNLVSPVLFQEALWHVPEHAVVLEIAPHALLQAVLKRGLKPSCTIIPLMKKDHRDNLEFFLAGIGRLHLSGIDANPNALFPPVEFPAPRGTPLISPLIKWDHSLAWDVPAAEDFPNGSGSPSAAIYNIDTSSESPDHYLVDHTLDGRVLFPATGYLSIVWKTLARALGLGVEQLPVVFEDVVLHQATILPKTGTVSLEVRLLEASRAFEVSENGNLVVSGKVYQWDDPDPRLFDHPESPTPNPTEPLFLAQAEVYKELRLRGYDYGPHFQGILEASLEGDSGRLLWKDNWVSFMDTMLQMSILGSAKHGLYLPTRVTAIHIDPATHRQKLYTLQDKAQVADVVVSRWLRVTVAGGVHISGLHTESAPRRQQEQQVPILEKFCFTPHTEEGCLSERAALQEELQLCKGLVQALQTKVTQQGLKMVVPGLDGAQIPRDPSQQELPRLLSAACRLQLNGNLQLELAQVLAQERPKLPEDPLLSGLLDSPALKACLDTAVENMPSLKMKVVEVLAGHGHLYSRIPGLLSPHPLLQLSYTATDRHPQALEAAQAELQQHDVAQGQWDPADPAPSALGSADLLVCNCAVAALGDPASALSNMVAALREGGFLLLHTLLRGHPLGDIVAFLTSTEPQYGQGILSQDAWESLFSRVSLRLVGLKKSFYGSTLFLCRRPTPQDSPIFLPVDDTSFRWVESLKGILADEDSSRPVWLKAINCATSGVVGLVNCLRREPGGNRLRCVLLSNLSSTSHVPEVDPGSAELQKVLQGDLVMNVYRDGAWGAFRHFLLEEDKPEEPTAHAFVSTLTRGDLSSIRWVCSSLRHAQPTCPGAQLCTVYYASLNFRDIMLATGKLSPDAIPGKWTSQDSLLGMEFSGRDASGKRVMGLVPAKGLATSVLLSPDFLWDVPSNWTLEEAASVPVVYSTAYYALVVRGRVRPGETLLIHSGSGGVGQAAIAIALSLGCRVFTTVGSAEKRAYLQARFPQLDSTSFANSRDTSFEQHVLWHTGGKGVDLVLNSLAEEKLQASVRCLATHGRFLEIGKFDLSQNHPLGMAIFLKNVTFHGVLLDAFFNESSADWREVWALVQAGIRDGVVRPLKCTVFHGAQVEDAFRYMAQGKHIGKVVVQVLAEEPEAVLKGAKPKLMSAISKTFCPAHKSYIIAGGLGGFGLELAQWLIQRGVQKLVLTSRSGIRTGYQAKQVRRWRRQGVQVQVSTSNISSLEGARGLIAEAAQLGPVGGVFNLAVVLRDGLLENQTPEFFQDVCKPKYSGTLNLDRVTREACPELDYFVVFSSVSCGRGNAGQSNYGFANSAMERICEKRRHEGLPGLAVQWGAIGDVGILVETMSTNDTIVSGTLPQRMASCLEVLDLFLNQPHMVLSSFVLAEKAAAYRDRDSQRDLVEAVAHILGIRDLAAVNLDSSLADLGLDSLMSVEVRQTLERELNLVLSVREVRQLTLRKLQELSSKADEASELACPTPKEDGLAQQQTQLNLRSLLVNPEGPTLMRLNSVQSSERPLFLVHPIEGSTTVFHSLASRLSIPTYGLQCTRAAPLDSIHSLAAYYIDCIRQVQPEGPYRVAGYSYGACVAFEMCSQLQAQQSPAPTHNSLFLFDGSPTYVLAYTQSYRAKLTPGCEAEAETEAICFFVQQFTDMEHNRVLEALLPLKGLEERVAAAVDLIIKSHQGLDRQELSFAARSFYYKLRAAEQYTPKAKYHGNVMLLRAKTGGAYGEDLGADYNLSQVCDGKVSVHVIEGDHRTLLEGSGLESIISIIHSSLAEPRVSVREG
Structure (SMILES),inhibition at 100 µM,"IC50, inhibition of human Fatty Acid Synthase"
"Cc1cc(C)c(C(=O)N2CCC(c3ccc(C#N)cc3)CC2)cc1NC(=O)NCc1ccccn1 [Example 409, 1-[5-[4-(4-cyanophenyl)piperidine-1-carbonyl]-2,4-dimethylphenyl]-3-(pyridin-2-ylmethyl)urea]",96.9%,–
"CCNC(=O)Nc1cc(C(=O)N2CCC(c3ccc(C#N)cc3)CC2)c(C)cc1C [Example 410, 3-[5-[4-(4-cyanophenyl)piperidine-1-carbonyl]-2,4-dimethylphenyl]-1-ethylurea]",93.7%,–
"Cc1cc(C)c(C(=O)N2CCC(c3ccc(C#N)cc3)CC2)cc1NC(=O)NC1CC1 [Example 411, 1-[5-[4-(4-cyanophenyl)piperidine-1-carbonyl]-2,4-dimethylphenyl]-3-cyclopropylurea]",90%,–
"COCCNC(=O)Nc1cc(C(=O)N2CCC(c3ccc(C#N)cc3)CC2)c(C)cc1C [Example 412, 1-[5-[4-(4-cyanophenyl)piperidine-1-carbonyl]-2,4-dimethylphenyl]-3-(2-methoxyethyl)urea]",89.9%,–
"C#CCNC(=O)Nc1cc(C(=O)N2CCC(c3ccc(C#N)cc3)CC2)c(C)cc1C [Example 413, 1-[5-[4-(4-cyanophenyl)piperidine-1-carbonyl]-2,4-dimethylphenyl]-3-prop-2-ynylurea]",101%,–
"Cc1ccc(NC(=O)NCc2ccccn2)cc1C(=O)N1CCC(c2ccc(C#N)cc2)CC1 [Example 414, 1-[3-[4-(4-cyanophenyl)piperidine-1-carbonyl]-4-methylphenyl]-3-(pyridin-2-ylmethyl)urea]",83.6%,–
"Cc1ccc(NC(=O)NC2CC2)cc1C(=O)N1CCC(c2ccc(C#N)cc2)CC1 [Example 415, 1-[3-[4-(4-cyanophenyl)piperidine-1-carbonyl]-4-methylphenyl]-3-cyclopropylurea]",78.2%,–
"CCOCCCNC(=O)Nc1ccc(C)c(C(=O)N2CCC(c3ccc(C#N)cc3)CC2)c1 [Example 416, 3-[3-[4-(4-cyanophenyl)piperidine-1-carbonyl]-4-methylphenyl]-1-(3-ethoxypropyl)urea]",90.8%,–
"COCCNC(=O)Nc1ccc(C)c(C(=O)N2CCC(c3ccc(C#N)cc3)CC2)c1 [Example 417, 1-[3-[4-(4-cyanophenyl)piperidine-1-carbonyl]-4-methylphenyl]-3-(2-methoxyethyl)urea]",85.1%,–
"C#CCNC(=O)Nc1ccc(C)c(C(=O)N2CCC(c3ccc(C#N)cc3)CC2)c1 [Example 418, 1-[3-[4-(4-cyanophenyl)piperidine-1-carbonyl]-4-methylphenyl]-3-prop-2-ynylurea]",67.3%,–
COC(=O)C(C)(C)NC(=O)Nc1cc(C(=O)N2CCC(c3ccc(C#N)cc3)CC2)ccc1C [Methyl 2-[[5-[4-(4-cyanophenyl)piperidine-1-carbonyl]-2-methylphenyl]carbamoylamino]-2-methylpropanoate],–,do not have IC50s in the range of about 0.001 μM to about 30 μM
COC(=O)C(Cc1ccc(F)cc1)NC(=O)Nc1cc(C(=O)N2CCC(c3ccc(C#N)cc3)CC2)ccc1C (stereo not shown) [Methyl 2-[[5-[4-(4-cyanophenyl)piperidine-1-carbonyl]-2-methylphenyl]carbamoylamino]-3-(4-fluorophenyl)propanoate],–,do not have IC50s in the range of about 0.001 μM to about 30 μM
COC(=O)C(CCn1cnnn1)NC(=O)Nc1cc(C(=O)N2CCC(c3ccc(C#N)cc3)CC2)ccc1C (stereo not shown) [Methyl 2-[[5-[4-(4-cyanophenyl)piperidine-1-carbonyl]-2-methylphenyl]carbamoylamino]-4-(tetrazol-1-yl)butanoate],–,do not have IC50s in the range of about 0.001 μM to about 30 μM
COC(=O)[C@@H](NC(=O)Nc1cc(C(=O)N2CCC(c3ccc(C#N)cc3)CC2)ccc1C)c1ccccc1 [Methyl (2S)-2-[[5-[4-(4-cyanophenyl)piperidine-1-carbonyl]-2-methylphenyl]carbamoylamino]-2-phenylacetate],–,do not have IC50s in the range of about 0.001 μM to about 30 μM
COC(=O)[C@H](Cc1cn(C)cn1)NC(=O)Nc1cc(C(=O)N2CCC(c3ccc(C#N)cc3)CC2)ccc1C [Methyl (2S)-2-[[5-[4-(4-cyanophenyl)piperidine-1-carbonyl]-2-methylphenyl]carbamoylamino]-3-(1-methylimidazol-4-yl)propanoate],–,do not have IC50s in the range of about 0.001 μM to about 30 μM
COC(=O)[C@@H](NC(=O)Nc1cc(C(=O)N2CCC(c3ccc(C#N)cc3)CC2)ccc1C)C(C)C [Methyl (2S)-2-[[5-[4-(4-cyanophenyl)piperidine-1-carbonyl]-2-methylphenyl]carbamoylamino]-3-methylbutanoate],–,do not have IC50s in the range of about 0.001 μM to about 30 μM
COC(=O)[C@H](CCc1nnn[nH]1)NC(=O)Nc1cc(C(=O)N2CCC(c3ccc(C#N)cc3)CC2)ccc1C [Methyl (2S)-2-[[5-[4-(4-cyanophenyl)piperidine-1-carbonyl]-2-methylphenyl]carbamoylamino]-4-(1H-tetrazol-5-yl)butanoate],–,do not have IC50s in the range of about 0.001 μM to about 30 μM
Cc1ccc(C(=O)N2CCC(c3ccc(C#N)cc3)CC2)cc1NC(=O)N(C)CCNC(=O)C(C)C [N-[2-[[5-[4-(4-cyanophenyl)piperidine-1-carbonyl]-2-methylphenyl]carbamoyl-methylamino]ethyl]-2-methylpropanamide],–,do not have IC50s in the range of about 0.001 μM to about 30 μM
"Cc1ccc(C(=O)N2CCC(c3ccc(C#N)cc3)CC2)cc1NC(=O)N1CCS(=O)(=O)CC1 [N-[5-[4-(4-cyanophenyl)piperidine-1-carbonyl]-2-methylphenyl]-1,1-dioxo-1,4-thiazinane-4-carboxamide]",–,do not have IC50s in the range of about 0.001 μM to about 30 μM
